# Reference: US20240376073A1 (Hoffmann-La Roche Inc., priority 2021, published 2024)
# Counter-ions that a name gives are not always drawn.
# System: Acinetobacter baumannii ATCC17961
# Test: Antimicrobial susceptibility testing: 90% growth inhibitory concentration (IC90) determination
# Assay type: cell-based
# Conditions: Acinetobacter baumannii ATCC17961; Iso-Sensitest broth; growth by OD 600 nm over 16 h; 35±2° C.; read-out: ATCC 17961 IC90
# In short: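 Twofold serial dilutions (e.g. 50 to 0.097 μM final) in Iso-Sensitest broth, inoculated at ~5×10^(5) CFU/ml, incubated at 35±2° C. OD600 read every 20 min over 16 h; IC90 derived from growth inhibition during logarithmic growth.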
row,SMILES,IC90 [nM]
1,"COc1ccc(-c2cnc(C(=O)Nc3ccc(C(=O)N4CCN(C(=O)C5CC[N+](C)(CC(N)=O)CC5)CC4)c(Cl)c3)n2C)c(F)c1F (stereo not drawn) [Example C5, N-[4-[4-[1-(2-amino-2-oxo-ethyl)-1-methyl-piperidin-1-ium-4-carbonyl]-piperazine-1-carbonyl]-3-chloro-phenyl]-5-(2,3-difluoro-4-methoxy-phenyl)-1-meth-yl-imidazole-2-carboxamide; formate]",73
2,"COc1ccc(-c2cnc(C(=O)Nc3ccc(C(=O)N4CCN(C(=O)C5CCN(C(=O)C[N+](C)(C)CC(N)=O)CC5)CC4)c(Cl)c3)n2C)c(F)c1F [Example C7, (2-amino-2-oxo-ethyl)-[2-[4-[4-[2-chloro-4-[[5-(2,3-difluoro-4-methoxy-phenyl)-1-meth-yl-imidazole-2-carbonyl]amino]-benzoyl]piper-azine-1-carbon-yl]-1-piperidyl]-2-oxo-ethyl]-dimethyl-ammo-nium; formate]",250
3,"COc1ccc(-c2cnc(C(=O)Nc3ccc(C(=O)N4CCN(C(=O)C5CC[N+](C)(CC(=O)O)CC5)CC4)c(Cl)c3)n2C)c(F)c1F (stereo not drawn) [Example C8, 2-[4-[4-[2-chloro-4-[[5-(2,3-difluoro-4-methoxy-phen-yl)-1-methyl-imidazole-2-carbonyl]amino]-benzoyl]piper-azine-1-carbon-yl]-1-methyl-piperidin-1-ium-1-yl]acetic acid; formate]",640
4,"Cn1c(-c2ccc(OC(F)F)c(F)c2F)cnc1C(=O)Nc1ccc(C(=O)N2CCN(C(=O)C3CC[N+](C)(CC4CCNC4)CC3)CC2)c(Cl)c1 (stereo not drawn) [Example C14, N-[3-chloro-4-[4-[1-methyl-1-(pyrrolidin-3-yl-methyl)piperidin-1-ium-4-carbon-yl]piperazine-1-carbonyl]phenyl]-5-[4-(difluoro-methoxy)-2,3-difluoro-phenyl]-1-methyl-imid-azole-2-carbox-amide; formic acid; formate]",49
5,"Cn1c(-c2ccc(OC(F)F)c(F)c2Cl)cnc1C(=O)Nc1ccc(C(=O)N2CCN(C(=O)C3CC[N+](C)(CC4CNC4)CC3)CC2)c(Cl)c1 (stereo not drawn) [Example C15, N-[4-[4-[1-(azetidin-3-yl-methyl)-1-meth-yl-piperidin-1-ium-4-carbonyl]-piperazine-1-car-bonyl]-3-chloro-phenyl]-5-[2-chloro-4-(difluoro-methoxy)-3-fluoro-phenyl]-1-methyl-imidazole-2-carboxamide; formic acid; formate]",73

# Continued, values first:
row,IC90 [nM],SMILES
1,57,"COc1ccc(-c2cnc(C(=O)Nc3ccc(C(=O)N4CCN(C(=O)C5CC[N+](C)(CC(N)=O)CC5)CC4)c(Cl)c3)n2C)c(Cl)c1F (stereo not drawn) [Example C3, N-[4-[4-[1-(2-amino-2-oxo-ethyl)-1-methyl-piperidin-1-ium-4-carbonyl]-piperazine-1-carbonyl]-3-chloro-phenyl]-5-(2-chloro-3-fluoro-4-meth-oxy-phenyl)-1-methyl-imid-azole-2-carbox-amide; formate]"
2,160,"COc1ccc(-c2cnc(C(=O)Nc3ccc(C(=O)N4CCN(C(=O)C5CCN(C(=O)C[N+](C)(C)C)CC5)CC4)c(Cl)c3)n2C)c(F)c1F [Example C6, [2-[4-[4-[2-chloro-4-[5-(2,3-difluoro-4-methoxy-phen-yl)-1-methyl-imidazole-2-carbonyl]amino]-benzoyl]piper-azine-1-carbon-yl]-1-piperidyl]-2-oxo-ethyl]-trimethyl-ammonium; formate]"
3,43,"Cn1c(-c2ccc(OC(F)F)c(F)c2Cl)cnc1C(=O)Nc1ccc(C(=O)N2CCN(C(=O)C3CC[N+](C)(CCN)CC3)CC2)c(Cl)c1 (stereo not drawn) [Example C12, N-[4-[4-[1-(2-aminoethyl)-1-methyl-piperidin-1-ium-4-carbon-yl]piperazine-1-carbonyl]-3-chloro-phenyl]-5-[2-chloro-4-(difluorometh-oxy)-3-fluoro-phenyl]-1-methyl-imidazole-2-carboxamide; formic acid; formate]"
4,73,"Cn1c(-c2ccc(OC(F)F)c(F)c2F)cnc1C(=O)Nc1ccc(C(=O)N2CCN(C(=O)C3CC[N+](C)(CC4CNC4)CC3)CC2)c(Cl)c1 (stereo not drawn) [Example C13, N-[4-[4-[1-(azet-idin-3-ylmeth-yl)-1-methyl-piper-idin-1-ium-4-carbonyl]piper-azine-1-carbon-yl]-3-chloro-phen-yl]-5-[4-(difluoro-methoxy)-2,3-difluoro-phenyl]-1-methyl-imid-azole-2-carbox-amide; 2,2,2-trifluoroacetate; 2,2,2-trifluoro-acetic acid]"
5,100,"COc1ccc(-c2cnc(C(=O)Nc3ccc(C(=O)N4CCN(C(=O)C5CC[N+](C)(CC6CNC6)CC5)CC4)c(Cl)c3)n2C)c(F)c1F (stereo not drawn) [Example C16, N-[4-[4-[1-(azet-idin-3-ylmethyl)-1-methyl-piper-idin-1-ium-4-carbonyl]piper-azine-1-carbon-yl]-3-chloro-phenyl]-5-(2,3-difluoro-4-meth-oxy-phenyl)-1-methyl-imid-azole-2-carbox-amide; formic acid; formate]"
6,220,"CCc1cc(NC(=O)c2ncc(-c3ccc(OC(F)F)c(F)c3F)n2C)ccc1C(=O)N1CCN(C(=O)C2CC[N+](C)(CC3CCNC3)CC2)CC1 (stereo not drawn) [Example C17, 5-[4-(difluoro-methoxy)-2,3-difluoro-phenyl]-N-[3-ethyl-4-[4-[1-methyl-1-(pyr-rolidin-3-ylmeth-yl)piperidin-1-ium-4-carbonyl]-piperazine-1-carbonyl]phenyl]-1-methyl-imid-azole-2-carbox-amide; 2,2,2-trifluoroacetate; 2,2,2-trifluoro-acetic acid]"
7,220,"Cn1c(-c2ccc(OC(F)F)c(F)c2F)cnc1C(=O)Nc1ccc(C(=O)N2CCN(C(=O)CC3CC[N+](C)(CC4CCNC4)C3)CC2)c(Cl)c1 (stereo not drawn) [Example C18, N-[3-chloro-4-[4-[2-[1-methyl-1-(pyrrolidin-3-yl-methyl)pyrrol-idin-1-ium-3-yl]-acetyl]piperazine-1-carbonyl]phen-yl]-5-[4-(difluoro-methoxy)-2,3-difluoro-phenyl]-1-methyl-imid-azole-2-carbox-amide; 2,2,2-trifluoroacetate; 2,2,2-trifluoro-acetic acid]"
8,270,CCc1cc(NC(=O)c2ncc(-c3ccc(OC(F)F)c(F)c3F)n2C)ccc1C(=O)N1CCN(C(=O)C2CC[N+](C)(CC3CNC3)CC2)CC1 (stereo not drawn) [Example C19]

# Same assay, conditions: Acinetobacter baumannii, ATCC17961, 16 h, read-out: ATCC 17961 IC90, Acinetobacter baumannii ATCC17961; Iso-Sensitest broth; growth by OD 600 nm over 16 h; 35±2° C.
row,SMILES,IC90 [nM]
1,"Cn1c(-c2ccc(OC(F)F)c(F)c2Cl)cnc1C(=O)Nc1ccc(C(=O)N2CCN(C(=O)C3CC[N+](CC(N)=O)(CC(N)=O)CC3)CC2)c(Cl)c1 [Example C9, N-[4-[4-[1,1-bis(2-amino-2-oxo-ethyl)piper-idin-1-ium-4-carbonyl]piper-azine-1-carbon-yl]-3-chloro-phenyl]-5-[2-chloro-4-(difluorometh-oxy)-3-fluoro-phenyl]-1-methyl-imid-azole-2-carbox-amide; formate]",120
2,Cn1c(-c2ccc(OC(F)F)c(F)c2Cl)cnc1C(=O)Nc1ccc(C(=O)N2CCN(C(=O)C3CC[N+](CC(N)=O)(CC4CNC4)CC3)CC2)c(Cl)c1 (stereo not drawn) [Example C10],100
